Among the data in patent US20240150340A1, “CDK Inhibitors And Their Use As Pharmaceuticals” (Prelude Therapeutics Incorporated, priority 2022, published 2024) are IC50 values, retold here.

A word on the IC50: it is the concentration that gives 50% inhibition.

SMILES strings stand for the structures. Some results are limits rather than exact numbers.

One experiment has as its target T1, CDK2/Cyclin E2 (Homo sapiens, UniProt P24941).
T1 construct: Recombinant protein complex CDK2/Cyclin E2, expressed from insect cell, was purchased from ProQinase
The experiment can be described thus: CDK2/CyclinE2 Enzymatic Activity Assay (TR-FRET). It counts as biochemical. As to conditions: ATP 1 mM final, read-out: CDK2_E1 IC50. An outline of the steps:
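Recombinant insect-cell CDK2/Cyclin E2 (1 nM) phosphorylated ULight-4E-BP1 (50 nM) with 1 mM ATP in HEPES pH 7.4 buffer, after 20 min compound preincubation; MgCl2 (10 mM) started the 45 min reaction at 37° C. Europium anti-phospho-4E-BP1 TR-FRET read; 9-dose IC50 by 4-parameter fit.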

A further experiment has as its system OVCAR3 p-RB. Description: pRB ICW Assay in OVCAR3 Cells. It counts as cell-based. As to conditions: Homo sapiens, OVCAR-3, incubated with compound for 2 hours. Put shortly:
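OVCAR3 cells were treated 2 h at 37° C. with a 9-point half-log compound series, duplicate wells, with 10 μM reference compound as maximum inhibition. Fixed, permeabilized cells were stained with anti-phospho-RB plus DRAQ5 and imaged at 700/800 nm (In-Cell Western).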

The target in a further experiment is T2, CDK4/Cyclin D1 (Homo sapiens, UniProt P11802).
T2 construct: purchased ProQinase; host or cells: insect cell
The experiment can be described thus: CDK4/CyclinD1 Enzymatic Activity Assay (TR-FRET). It counts as biochemical. As to conditions: ATP 2 mM final, read-out: CDK4_D1 IC50. As for the experimental part: CDK4/CyclinD1 Enzymatic Activity Assay
The inhibitory activity of compounds was evaluated in vitro using TR-FRET assay with white 384-well low volume microplate (Greiner Bio-One). CDK4/Cyclin D1 catalyzed phosphorylation of peptide in the presence and absence of compounds was measured and used in IC50 determination. Recombinant protein complex CDK4/Cyclin D1, expressed from insect cell, was purchased from ProQinase. Testing compounds were dissolved in DMSO at 1 mM and tested in 9-dose IC50 mode. The reaction mixture was prepared by mixing CDK4/CyclinD1 (1 nM final), ULight-4E-BP1 (100 nM final, Perkinelmer, TRF0128-D), and ATP (2 mM final) in assay buffer (20 mM of HEPES pH 7.4, 1 mM of EGTA, 0.05% BSA, 0.005% Tween 20, and 1 mM TCEP). The compound of interest in DMSO was added to each well in 3-fold serial dilution by the dispenser (TECAN D300E) to make a 9.9 μL of reaction mixture. After 20 minutes preincubation at room temperature, 0.1 μL MgCl2 (10 mM final) was added to initiate the reaction. Following a 45-minute incubation at 37° C., the reaction was stopped by addition of 2 μL of quenching buffer consisting of Lance detection buffer (Perkinelmer CR97-100C), LANCE Ultra Europium-anti-P-4E-BP1 (Perkinelmer, TRF0216-D), EDTA, and incubated at room temperature for additional 60 minutes in dark. The reaction signal was measured by Envision multimode plate reader (PerkinElmer, 2102-0010). IC50 values were determined by fitting the data to the standard 4 parameters with Hill Slope using GraphPad Prism software.
A general note: In TR-FRET formats the signal depends on donor and acceptor labels being close together.

T2 sequence (P11802 whole entry): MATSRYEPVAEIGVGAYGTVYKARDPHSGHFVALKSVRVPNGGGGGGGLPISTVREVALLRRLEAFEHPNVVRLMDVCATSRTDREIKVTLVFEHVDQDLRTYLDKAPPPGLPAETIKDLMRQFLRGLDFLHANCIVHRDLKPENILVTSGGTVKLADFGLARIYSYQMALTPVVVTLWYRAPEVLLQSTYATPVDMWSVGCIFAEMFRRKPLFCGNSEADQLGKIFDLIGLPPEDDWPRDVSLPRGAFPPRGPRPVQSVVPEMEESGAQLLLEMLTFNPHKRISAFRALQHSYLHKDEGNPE
T2 sequence (P24385 whole entry partner): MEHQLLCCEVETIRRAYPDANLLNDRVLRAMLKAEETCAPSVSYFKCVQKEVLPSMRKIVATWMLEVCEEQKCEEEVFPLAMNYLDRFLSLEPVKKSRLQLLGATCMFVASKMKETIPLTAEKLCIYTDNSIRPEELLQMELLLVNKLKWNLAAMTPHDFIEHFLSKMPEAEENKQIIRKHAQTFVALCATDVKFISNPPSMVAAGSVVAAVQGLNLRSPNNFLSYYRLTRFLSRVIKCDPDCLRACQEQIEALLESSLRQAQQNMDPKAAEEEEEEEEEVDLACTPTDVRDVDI

Take `CC(O)c1sc(-c2nc(N[C@H]3CCN(S(=O)(=O)c4cn(C)cn4)C[C@H]3F)ncc2C(F)(F)F)cc1C#N` (stereo partly drawn) [Example 35, 5-(2-(((3R,4S)-3-fluoro-1-((1-methyl-1H-imidazol-4-yl)sulfonyl)piperidin-4-yl)amino)-5-(trifluoromethyl)pyrimidin-4-yl)-2-(1-hydroxyethyl)thiophene-3-carbonitrile]: the IC50 on CDK2/Cyclin E2, in the experiment on OVCAR3 p-RB and on CDK4/Cyclin D1 was at most 0.1 µM in each case.
Regarding `CC(O)c1sc(-c2nc(N[C@@H]3CCN(S(=O)(=O)c4cn(C)cn4)C[C@H]3F)ncc2C(F)(F)F)cc1C#N` (stereo partly drawn) [Example 37, 5-(2-(((3R,4R)-3-fluoro-1-((1-methyl-1H-imidazol-4-yl)sulfonyl)piperidin-4-yl)amino)-5-(trifluoromethyl)pyrimidin-4-yl)-2-(1-hydroxyethyl)thiophene-3-carbonitrile], the IC50 on CDK2/Cyclin E2, with OVCAR3 p-RB and at CDK4/Cyclin D1 was at most 0.1 µM throughout.
For the compound `CS(=O)(=O)N1CC[C@H](Nc2ncc(C(F)(F)F)c(-c3cc(C(N)=O)cs3)n2)[C@H](F)C1` [Example 7, 5-(2-(((3R,4S)-3-fluoro-1-(methylsulfonyl)piperidin-4-yl)amino)-5-(trifluoromethyl)pyrimidin-4-yl)thiophene-3-carboxamide], the IC50 on CDK2/Cyclin E2, in the experiment on OVCAR3 p-RB and on CDK4/Cyclin D1 was at most 0.1 µM throughout.
Take `Cc1sc(-c2nc(N[C@H]3CCN(S(C)(=O)=O)C[C@H]3C)ncc2C(F)(F)F)cc1C#N` [Example 54, 2-methyl-5-(2-(((3R,4S)-3-methyl-1-(methylsulfonyl)piperidin-4-yl)amino)-5-(trifluoromethyl)pyrimidin-4-yl)thiophene-3-carbonitrile]: the IC50 on CDK2/Cyclin E2 was at most 0.1 µM; in the experiment with OVCAR3 p-RB it was over 0.5 µM; on CDK4/Cyclin D1, over 0.5 µM.
Turning to `C[C@@H]1CN(S(C)(=O)=O)CC[C@@H]1Nc1ncc(C(F)(F)F)c(-c2ncc(CC(C)(C)O)s2)n1` [Example 131, 2-methyl-1-(2-(2-(((3R,4S)-3-methyl-1-(methylsulfonyl)piperidin-4-yl)amino)-5-(trifluoromethyl)pyrimidin-4-yl)thiazol-5-yl)propan-2-ol], the IC50 at CDK2/Cyclin E2 is at most 0.1 µM; in the experiment with OVCAR3 p-RB, over 0.5 µM; on CDK4/Cyclin D1 it was 0.1 to 0.5 µM.
Consider `Cn1cnc(S(=O)(=O)N2CCC(Nc3ncc(C(F)(F)F)c(-c4cc(C(N)=O)ns4)n3)CC2)c1` [Example 50, 5-(2-((1-((1-methyl-1H-imidazol-4-yl)sulfonyl)piperidin-4-yl)amino)-5-(trifluoromethyl)pyrimidin-4-yl)isothiazole-3-carboxamide], for which the IC50 on CDK2/Cyclin E2, in the experiment on OVCAR3 p-RB and on CDK4/Cyclin D1 was at most 0.1 µM throughout.
With `Cc1sc(-c2nc(NC3CCN(S(=O)(=O)c4cnc(N)s4)CC3)ncc2C(F)(F)F)cc1C#N` [Example 93, 5-(2-((1-((2-Aminothiazol-5-yl)sulfonyl)piperidin-4-yl)amino)-5-(trifluoromethyl)pyrimidin-4-yl)-2-methylthiophene-3-carbonitrile], the values for the IC50 on CDK2/Cyclin E2, in the experiment on OVCAR3 p-RB and at CDK4/Cyclin D1 were at most 0.1 µM, 0.1 to 0.5 µM and 0.1 to 0.5 µM, respectively.
As for `Cc1cnc(-c2nc(N[C@H]3CCN(S(=O)(=O)c4cn(C)cn4)C[C@H]3C)ncc2C(F)(F)F)s1` [Example 64, N-((3R,4S)-3-methyl-1-((1-methyl-1H-imidazol-4-yl)sulfonyl)piperidin-4-yl)-4-(5-methylthiazol-2-yl)-5-(trifluoromethyl)pyrimidin-2-amine], the IC50 was at most 0.1 µM at CDK2/Cyclin E2, over 0.5 µM in the experiment on OVCAR3 p-RB and 0.1 to 0.5 µM on CDK4/Cyclin D1.
On to `Cn1cnc(S(=O)(=O)N2CC[C@@H](Nc3ncc(C(F)(F)F)c(-c4cc(C(N)=O)c(CC(C)(C)O)s4)n3)[C@H](F)C2)c1` [Example 49, 5-(2-(((3R,4R)-3-fluoro-1-((1-methyl-1H-imidazol-4-yl)sulfonyl)piperidin-4-yl)amino)-5-(trifluoromethyl)pyrimidin-4-yl)-2-(2-hydroxy-2-methylpropyl)thiophene-3-carboxamide], for which the values for the IC50 at CDK2/Cyclin E2, with OVCAR3 p-RB and on CDK4/Cyclin D1 were at most 0.1 µM, 0.1 to 0.5 µM and at most 0.1 µM, respectively.
Regarding `Cc1sc(-c2nc(N[C@H]3CCN(S(C)(=O)=O)C[C@H]3C)ncc2C(F)(F)F)cc1C(N)=O` [Example 52, 2-methyl-5-(2-(((3R,4S)-3-methyl-1-(methylsulfonyl)piperidin-4-yl)amino)-5-(trifluoromethyl)pyrimidin-4-yl)thiophene-3-carboxamide], the IC50 was at most 0.1 µM at CDK2/Cyclin E2, 0.1 to 0.5 µM with OVCAR3 p-RB and 0.1 to 0.5 µM at CDK4/Cyclin D1.
In the case of `Cc1sc(-c2nc(N[C@@H]3CCN(S(C)(=O)=O)C[C@H]3F)ncc2C(F)(F)F)cc1C(N)=O` [Example 8, 5-(2-(((3R,4R)-3-fluoro-1-(methylsulfonyl)piperidin-4-yl)amino)-5-(trifluoromethyl)pyrimidin-4-yl)-2-methylthiophene-3-carboxamide], the IC50 at CDK2/Cyclin E2, with OVCAR3 p-RB and on CDK4/Cyclin D1 was at most 0.1 µM each time.
Take `CS(=O)(=O)N1CCC(Nc2ncc(C(F)(F)F)c(-c3cc(C(N)=O)cs3)n2)CC1` [Example 73, 5-(2-((1-(methylsulfonyl)piperidin-4-yl)amino)-5-(trifluoromethyl)pyrimidin-4-yl)thiophene-3-carboxamide]: the IC50 at CDK2/Cyclin E2, with OVCAR3 p-RB and at CDK4/Cyclin D1 was at most 0.1 µM each time.
For the compound `Cc1sc(-c2nc(N[C@@H]3CCN(S(=O)(=O)c4cn(C)cn4)C[C@H]3F)ncc2C(F)(F)F)cc1C#N` [Example 5, 5-(2-(((3R,4R)-3-fluoro-1-((1-methyl-1H-imidazol-4-yl)sulfonyl)piperidin-4-yl)amino)-5-(trifluoromethyl)pyrimidin-4-yl)-2-methylthiophene-3-carbonitrile], the 50% inhibitory concentration (IC50) at CDK2/Cyclin E2 is at most 0.1 µM; with OVCAR3 p-RB, 0.1 to 0.5 µM; on CDK4/Cyclin D1, at most 0.1 µM.
As for `Cc1sc(-c2nc(N[C@H]3CCN(S(=O)(=O)c4cnn(C)c4)C[C@H]3F)ncc2C(F)(F)F)cc1C(N)=O` [Example 15, 5-(2-(((3R,4S)-3-fluoro-1-((1-methyl-1H-pyrazol-4-yl)sulfonyl)piperidin-4-yl)amino)-5-(trifluoromethyl)pyrimidin-4-yl)-2-methylthiophene-3-carboxamide], the half-inhibitory concentration (IC50) at CDK2/Cyclin E2, with OVCAR3 p-RB and on CDK4/Cyclin D1 was at most 0.1 µM each time.
For `Cc1sc(-c2nc(N[C@H]3CCN(S(=O)(=O)c4cn(C)cn4)C[C@H]3F)ncc2C(F)(F)F)cc1C(N)=O` [Example 16, 5-(2-(((3R,4S)-3-fluoro-1-((1-methyl-1H-imidazol-4-yl)sulfonyl)piperidin-4-yl)amino)-5-(trifluoromethyl)pyrimidin-4-yl)-2-methylthiophene-3-carboxamide], the IC50 at CDK2/Cyclin E2, in the experiment on OVCAR3 p-RB and at CDK4/Cyclin D1 was at most 0.1 µM each time.
Regarding `Cc1sc(-c2nc(N[C@@H]3CCN(S(=O)(=O)c4cn(C)cn4)C[C@H]3F)ncc2C(F)(F)F)cc1C(N)=O` [Example 18, 5-(2-(((3R,4R)-3-fluoro-1-((1-methyl-1H-imidazol-4-yl)sulfonyl)piperidin-4-yl)amino)-5-(trifluoromethyl)pyrimidin-4-yl)-2-methylthiophene-3-carboxamide], the IC50 at CDK2/Cyclin E2, with OVCAR3 p-RB and on CDK4/Cyclin D1 was at most 0.1 µM each time.
`CC(O)c1sc(-c2nc(N[C@H]3CCN(S(=O)(=O)c4c[nH]cn4)C[C@H]3C)ncc2C(F)(F)F)cc1C#N` (stereo partly drawn) [Example 68, 5-(2-(((3R,4S)-1-((1H-imidazol-4-yl)sulfonyl)-3-methylpiperidin-4-yl)amino)-5-(trifluoromethyl)pyrimidin-4-yl)-2-(1-hydroxyethyl)thiophene-3-carbonitrile]: the figures for the IC50 at CDK2/Cyclin E2, with OVCAR3 p-RB and at CDK4/Cyclin D1 were at most 0.1 µM, 0.1 to 0.5 µM and 0.1 to 0.5 µM, respectively.
Consider `COc1cc(-c2nc(NC3CCN(S(=O)(=O)c4cn(C)cn4)CC3)ncc2C(F)(F)F)sc1C` [Example 75, 4-(4-methoxy-5-methylthiophen-2-yl)-N-(1-((1-methyl-1H-imidazol-4-yl)sulfonyl)piperidin-4-yl)-5-(trifluoromethyl)pyrimidin-2-amine], for which the results for the IC50 on CDK2/Cyclin E2, with OVCAR3 p-RB and at CDK4/Cyclin D1 were at most 0.1 µM, over 0.5 µM and over 0.5 µM, respectively.
